System: moderate to severe post-operative dental pain
Experiment: PK/PD dental pain study, 12 hour observation period
Protocol: A double-blind, randomized, parallel, placebo-controlled, single center, PK/PD dental pain study was conducted over a 12 hour observation period to evaluate the pharmacokinetic, pharmacodynamic, efficacy and safety profiles of certain ibuprofen dosing regimens. Specifically, a single dose of 600 mg ibuprofen extended release caplets was compared with equivalent total doses of ibuprofen immediate release 200 mg caplets administered in three different dosing regimens as well as placebo in the treatment of moderate to severe post-operative dental pain. […] One sub-group of patients had both pharmacokinetic and pharmacodynamic evaluation (PK group). The other sub-group of patients had only the analgesic efficacy evaluations (non-PK group). Patients from both subgroups were assigned at random to one of the five following treatments:
A stopwatch technique was used to measure the onset of meaningful pain relief.

**Q.** `CC(C)Cc1ccc(C(C)C(=O)O)cc1` (stereo not shown) [ibuprofen, 2-(4-isobutylphenyl)-propionic acid] was tested. Which “pain relief during the first four hours” value (400/200/0 regimen: immediate release 400 mg at 0 hour, 200 mg at 4 hours) did it give?
**A.** The value was “superior pain relief over the other treatments”.

**Q.** And the “pain relief over the entire 12-hour study period” value (400/200/0 regimen: immediate release 400 mg at 0 hour, 200 mg at 4 hours, dental pain patients)?
**A.** Its value is “excellent pain relief”.

**Q.** What about the “pain relief scores during the 4 to 12 hour interval” value (400/200/0 regimen, no further ibuprofen after the first four hours) of the same compound?
**A.** Its value is “highest pain relief scores”.

**Q.** What about the “pain relief during the first four hours” value (600/0/0 immediate release treatment: 600 mg single dose at 0 hour) of the same compound?
**A.** The value was “superior pain relief over the other treatments”.
